Experiment [1] relates to HLA-A24+ Epstein Barr Virus-transformed B (EBV-B) cells. Nature of the experiment: chromium release assay, CTL 13 against peptide pulsed EBV-B cells. It counts as cell-based. As to the method: In this experiment, CTL 13 was tested for specific lytic activity in standard chromium release assays.
In the assay, the targets of CTL 13 were HLA-A24^+ Epstein Barr Virus-transformed B (EBV-B) cells. The EBV-B cells were cultured in IMDM supplemented with 10% fetal calf serum, 0.24 mM L-asparagine, 0.55 mM L-arginine, AAG, 100 U/ml penicillin and 100 μg/ml streptomycin. The EBV-B cells were labeled with ^51Cr for one hour according to standard methods and then incubated for 5 minutes with peptide NYKRCFPVI (SEQ ID NO: 1) (1 μg/ml). The ^51Cr labeled, peptide pulsed EBV-B cells (targets) were then combined with CTL 13 (effector) at effector-to-target ratios shown in FIG. 3A. Chromium release was measured after 4 hours.
In further experiments, the HLA-A24 EBV-B cells were labeled with ^51Cr for one hour according to standard methods and then incubated for 15 minutes with threefold dilutions of the synthetic peptide NYKRCFPVI (SEQ ID NO: 1). CTL 13 was subsequently added at an effector-to-target ratio of 10:1 and chromium release was measured after 4 hours. The concentration of peptide shown in FIG. 3B corresponds to the concentrations during the 4 hour incubation. […] This is in the range of concentration observed for the previously identified antigenic MAGE peptides, for which values ranging from 0.05 to 200 nM have been observed. […]

Another experiment concerns the target T1, HLA-A2402 (Homo sapiens, UniProt P04439, D101N/D140Y/D185E/E176V/E190D/F33S/G103R/G107R/I119L/I121M/I306V/K335N/L105A/L180Q/L300P/N151K/N90K/Q86E/Q94H/R106L/R138H/R89G/T104I/T345S/V100E/W191G/Y123F).
T1 construct: made in house; host or cells: E. coli
Nature of the experiment: in vitro folding of recombinant HLA-A2402 with beta2-microglobulin and peptide (tetramer production). It counts as binding. The note with it: recombinant HLA-A2402 folded in vitro with beta2-microglobulin and peptide. An excerpt:
(§1) Recombinant HLA-A2402 molecules produced in E. coli were folded in vitro with beta2-microglobulin and peptide NYKRCFPVI (SEQ ID NO: 1) from MAGE-4, or peptide LYVDSLFFL (SEQ. ID NO: 2) from PRAME (control) (See Ikeda, et al., Immunity 6:199-208 (1997)), in accordance with Altman, et al., Science 274:94-96 (1996). The peptide of SEQ ID NO: 1 corresponds to amino acids 143-151 of MAGE-4. This specific peptide was selected because it is homologous to the peptide NYKHCFPEI (SEQ ID NO: 3), a MAGE-1 encoded peptide previously shown to be recognized by HLA-A24 restricted T cells. See Fujie, et al., Int. J. Cancer 80(2):169-172 (1999).
The HLA-peptide complexes were then purified by gel filtration, biotinylated and mixed as described in Altman, et al., supra with extraviden-phycoerythrin (PE) for the HLA-A24/MAGE-4 tetramer, or streptavidin-APC for the PRAME control tetramer. Both extravidin-PE and streptavidin-APC are commercially available. The tetramers were then used to label T cells, as described in the next example.

Experiment [2] concerns the target Recombinant HLA-A2402 molecules produced in E. coli, folded with beta2-microglobulin (human). Nature of the experiment: in vitro folding of recombinant HLA-A2402 with beta2-microglobulin and peptide.
Text: as §1, with “NYKRCFPVI” left out, “LYVDSLFFL” left out, “NYKHCFPEI” left out

Where no end group is shown, it is not given here.

The values that follow come from US20050249743A1, “Isolated peptides which bind to HLA-A24 molecules and uses thereof” (priority 2004, published 2005).

Consider NYKRCFPVI [SEQ ID NO: 1, NYKRCFPVI], for which, in experiment [1] (CTL 13, effector-to-target ratio 10:1, chromium release after 4 hours, read-out: peptide concentration giving half maximal lysis of peptide pulsed HLA-A24 target cells), the EC50 was 8 nM. The “lysis of peptide pulsed target cells by CTL 13” value in experiment [1] (peptide 1 μg/ml, 5 minutes pulse, chromium release after 4 hours, unpulsed control targets not lysed) is “lysed target cells pulsed with SEQ ID NO: 1 peptide”. Moreover, at HLA-A2402, the “formation of HLA-A2402/peptide complexes” value is “successful production of HLA-A2402 and SEQ ID NO: 1 peptide complexes”.

B1: peptide NYKRCFPVI (SEQ ID NO: 1) from MAGE-4 (peptide)
peptide: NYKRCFPVI
notes: Synthetic 9-mer; also called MAGE-4 antigenic peptide; MAGE-4.A24 peptide
In the case of B1, the binding result in experiment [2] was “binds”.
